IC50 data for one molecule are collected here from patent US20240261294A1, “METHOD FOR TREATING IDH INHIBITOR-RESISTANT SUBJECTS” (Eli Lilly and Company, priority 2021, published 2024).

Test [1] addresses T1, IDH2 R140Q (Homo sapiens, UniProt P48735, R140Q).
T1 construct: expressed in transfected cells; host or cells: U-87 MG
T1 sequence (P48735 40-452 R140Q): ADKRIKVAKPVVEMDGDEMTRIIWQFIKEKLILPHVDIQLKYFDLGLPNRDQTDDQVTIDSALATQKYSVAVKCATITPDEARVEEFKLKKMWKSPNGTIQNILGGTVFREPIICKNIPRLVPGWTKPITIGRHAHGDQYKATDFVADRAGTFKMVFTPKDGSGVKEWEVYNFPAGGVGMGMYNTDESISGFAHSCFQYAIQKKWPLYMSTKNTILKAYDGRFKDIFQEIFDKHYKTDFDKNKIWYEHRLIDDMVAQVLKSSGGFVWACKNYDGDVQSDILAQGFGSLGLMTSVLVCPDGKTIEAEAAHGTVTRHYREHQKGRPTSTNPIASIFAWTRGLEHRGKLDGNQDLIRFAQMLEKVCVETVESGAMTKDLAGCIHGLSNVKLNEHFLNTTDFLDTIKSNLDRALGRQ
As to the kind of experiment: Inhibition of 2-HG production in IDH2 mutant U-87 MG cells. Format: cell-based.

Test [2] has as its target T2, IDH2 R172K (Homo sapiens, UniProt P48735, R172K).
T2 sequence (P48735 40-452 R172K): T1 sequence (P48735 40-452 R140Q) with Q101R, R133K
Described as above. Format: cell-based.

Where [3] appears, read: 16 hours incubation, 50K cells/well, 100 μl media/well, read-out: Relative IC50 (nM) Mean, inhibition of 2-HG production.
Setting [4] is: 72 hours incubation, 12.5K cells/well, 150 μl media/well, read-out: IC50, inhibition of 2-HG production.

Where a chain is given by its changes, count along the chain named. Read-outs that look alike come from different tables or passages of the source.

Regarding `C=CC(=O)N1CCN([C@@H](CC2CC2)c2ccc([C@H](C)Nc3ncc4c(n3)N(CC)C(=O)OC4)cc2)CC1` [Compound A, 7-[[(1S)-1-[4-[(1S)-2-cyclopropyl-1-(4-prop-2-enoylpiperazin-1-yl)ethyl]phenyl]ethyl]amino]-1-ethyl-4H-pyrimido[4,5-d][1,3]oxazin-2-one], the IC50 (commonly the point on the concentration scale where inhibition reaches its midpoint) in test [1] (setting [3]) came out at 223 nM; in test [1] (setting [4]), 28.4 nM; in test [2] (setting [3]), 56 nM; in test [2] (setting [4]) it was 13.5 nM.
